Experimental data from the supplement of paper PMC6045584.

Experiments:
Test in all cases: area under dose-response curve of surviving fraction (unscaled, Aref=0) (surviving fraction x log10(nM)); higher = more resistant
Conditions in all cases: exposure time: 5 days; dose range 0.5-1000 nM
[1] = compound: CCn1c(C(=O)N(C2CC2)C2CC2)cc2c3c(ncn3C)c(Nc3cc(C)n(C)n3)nc21
In short: (§1)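 Surviving fractions were fitted by 3-parameter logistic regression in the drc R package to give dose-response survival curves. They came from tumour cell lines treated for five days with eight inhibitor concentrations from 0.5 to 1000 nM and read by CellTiter-Glo luminescence against DMSO-only wells. The area under the curve is the unscaled activity area. It was calculated over log10 dose with Aref = 0.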

[2] = compound: C[C@@H](Oc1cc(-c2cnn(C3CCNCC3)c2)cnc1N)c1c(Cl)ccc(F)c1Cl
In short: as §1

SOTRASTAURIN/AEB071 = compound: CN1CCN(c2nc(C3=C(c4c[nH]c5ccccc45)C(=O)NC3=O)c3ccccc3n2)CC1 [SOTRASTAURIN/AEB071]
In short: as §1

SORAFENIB = compound: CNC(=O)c1cc(Oc2ccc(NC(=O)Nc3ccc(Cl)c(C(F)(F)F)c3)cc2)ccn1 [SORAFENIB]
In short: as §1

DASATINIB = compound: Cc1nc(Nc2ncc(C(=O)Nc3c(C)cccc3Cl)s2)cc(N2CCN(CCO)CC2)n1 [DASATINIB]
In short: as §1

OLAPARIB = compound: O=C(c1cc(Cc2n[nH]c(=O)c3ccccc23)ccc1F)N1CCN(C(=O)C2CC2)CC1 [OLAPARIB]
In short: as §1

[3] = compound: CNCc1ccc(-c2[nH]c3cc(F)cc4c3c2CCNC4=O)cc1
In short: as §1

MLN-4924 = compound: NS(=O)(=O)OC[C@@H]1C[C@@H](n2ccc3c(N[C@H]4CCc5ccccc54)ncnc32)C[C@@H]1O [MLN-4924]
In short: as §1

TEMOZOLOMIDE = compound: Cn1nnc2c(C(N)=O)ncn2c1=O [TEMOZOLOMIDE]
In short: as §1

ABIRATERONE = compound: C[C@]12CC[C@H](O)CC1=CC[C@@H]1[C@@H]2CC[C@]2(C)C(c3cccnc3)=CC[C@@H]12 [ABIRATERONE]
In short: as §1

XAV-939 = compound: Oc1nc(-c2ccc(C(F)(F)F)cc2)nc2c1CSCC2 [XAV-939]
In short: as §1

[4] = compound: COc1cc2ncnc(Nc3ccc(F)c(Cl)c3)c2cc1NC(=O)/C=C/CN1CCCCC1
In short: as §1

FORETINIB = compound: COc1cc2c(Oc3ccc(NC(=O)C4(C(=O)Nc5ccc(F)cc5)CC4)cc3F)ccnc2cc1OCCCN1CCOCC1 [FORETINIB]
In short: as §1

CRIZOTINIB = compound: C[C@@H](Oc1cc(-c2cnn(C3CCNCC3)c2)cnc1N)c1c(Cl)ccc(F)c1Cl [CRIZOTINIB]
In short: as §1

| Test System | area under dose-response curve [1] | area under dose-response curve [2] | area under dose-response curve (SOTRASTAURIN/AEB071) | area under dose-response curve (SORAFENIB) | area under dose-response curve (DASATINIB) | area under dose-response curve (OLAPARIB) | area under dose-response curve [3] | area under dose-response curve (MLN-4924) | area under dose-response curve (TEMOZOLOMIDE) | area under dose-response curve (ABIRATERONE) | area under dose-response curve (XAV-939) | area under dose-response curve [4] | area under dose-response curve (FORETINIB) | area under dose-response curve (CRIZOTINIB) |
| --- | --- | --- | --- | --- | --- | --- | --- | --- | --- | --- | --- | --- | --- | --- |
| MDAMB453 BREAST | 3.37 | 3.17 | 3.19 | 3.59 | 3.37 | 3.22 | 3.18 | 2.43 | 3.62 | 3.51 | 3.47 | 3.06 | – | – |
| SIHA CERVIX | 3.23 | 3.14 | – | 3.73 | 2.35 | – | 3.29 | 2.59 | 3.34 | 3.9 | 3.55 | – | 3.11 | – |
| BT20 BREAST | 3.56 | 2.71 | 3.14 | – | 2.46 | 2.92 | 3.01 | – | 3.53 | 3.73 | 3.66 | 3.27 | 2.97 | – |
| HCT15 LARGE INTESTINE | 3.26 | 3.17 | 3.44 | 3.39 | 2.15 | – | 3.36 | 2.78 | 3.41 | 3.64 | 3.27 | – | 2.87 | 3.26 |
| YAMATO SYNOVIAL | 4.14 | 1.83 | 3.66 | 4.27 | 2.5 | – | – | – | 4.22 | 4.72 | 4.04 | 4.37 | 2.34 | 2.3 |
| SCC003 HEADNECK | – | 3.05 | 3.42 | 3.6 | 2.38 | 3.28 | 3.45 | 3.02 | 3.57 | 3.79 | – | 2.29 | 3.21 | – |
| C33A CERVIX | 3.14 | 3.07 | 3.68 | 3.69 | 1.29 | – | 3.29 | 2.13 | 3.18 | – | 3.08 | 2.14 | 3.09 | 3.26 |
| HU09 BONE | 3.49 | 2.79 | – | 2.68 | 1.76 | – | 3.06 | 2.59 | 3.28 | 3.7 | – | 3.08 | 2.28 | 3.03 |
| SCC47 HEADNECK | 3.18 | 3.1 | 3.57 | 3.24 | 2.21 | 3.46 | 3.48 | 2.46 | 3.61 | 3.98 | 3.53 | 2.3 | – | – |
| SUM149.B1*.S BREAST | 3.62 | 3.1 | 3.26 | 3.92 | 2.05 | – | – | 2.42 | 3.73 | 3.93 | 3.73 | 3.06 | – | 3.8 |
| MG63 BONE | 3.25 | 2.86 | 3.44 | 3.52 | 1.88 | 3.26 | 3.36 | 2.01 | 3.4 | – | 3.05 | 3.25 | 2.87 | – |
| SAOS2 BONE | 3.41 | 2.88 | 3.08 | – | 1.69 | 2.98 | 2.96 | 1.97 | 3.9 | 3.89 | 3.94 | 3.15 | 3.04 | – |
| SG31 HEADNECK | – | 2.66 | – | 3.79 | 1.99 | 3.18 | 3.16 | 2.42 | 3.5 | 3.4 | 3.04 | 2.06 | – | – |
| SJSA1 BONE | 3.42 | 3.21 | – | 3.31 | 3.23 | – | 5.61 | – | 3.28 | 3.63 | 3.64 | 3.54 | 5.45 | – |
| HCC1395 BREAST | 3.71 | 3.01 | 3.61 | 3.88 | 2.59 | 3.21 | 2.92 | 3.56 | 3.46 | 3.7 | 2.87 | 3.19 | – | 4.21 |
| CAL72 BONE | 3.63 | 3.32 | 3.55 | 3.59 | 1.77 | 3.24 | 3.26 | 2.83 | 3.47 | 3.67 | 3.18 | 3.26 | 3.09 | – |
| VP229 BREAST | 3.59 | 3.2 | – | 3.66 | 1.98 | – | 3.13 | 2.74 | 3.86 | 3.53 | 4.36 | 1.74 | – | – |
| BT549 BREAST | 3.29 | 3.16 | 3.27 | 3.65 | 1.74 | 2.76 | 3 | 2.41 | 3.71 | – | – | 3.07 | 3.09 | 3.2 |
| DU4475 BREAST | 2.83 | 2.23 | – | – | 2.37 | – | 2.68 | 1.46 | 3.12 | 3.18 | – | – | 2.98 | 2.9 |
| MDAMB468 BREAST | 3.4 | 3.05 | 3.12 | 3.82 | 2.57 | 2.89 | 2.75 | 2.17 | 3.67 | 3.46 | – | 2.43 | – | 3.08 |
| HUO3N1 BONE | – | 3.14 | 3.24 | 3.13 | 1.45 | 3.21 | 3.19 | 3.13 | 3.36 | 3.47 | – | 3.17 | 2.9 | – |
| HCC1806 BREAST | 3.46 | 2.87 | 3.26 | 3.16 | 1.53 | 2.84 | 2.77 | 1.35 | 3.62 | 3.71 | 3.59 | 2.42 | – | 3.08 |
